Laboratory results as given in patent publication US10065928B2, “Quinolinone compound and use thereof” (Sunshine Lake Pharma Co., Ltd., priority 2014, dated 2018).

Test system: erythropoietin (EPO) production in Hep3B cells
Assay: Activity in inducing erythropoietin (EPO) production in vitro, Hep3B cells, EPO ELISA
Format: cell-based
Conditions: Homo sapiens, 24 h, EPO in supernatant by ELISA
Experimental: The activities of compounds of the invention in inducing erythropoietin (EPO) production were assessed by using human live cancer cell strain Hep3B (ATCC: American type culture collection, Manassas, Va.). Hep3B cells seeded in a 96-well plate with a density of 2.5×10^4 cells/well were cultivated overnight in DMEM culture medium (Dulbecco's Modified Eagle's Medium) at 37° C. in the presence of 10% fetal bovine serum (FBS). The next day, the supernatant liquid of culture medium was abandoned by suction, and to the residue was added fresh DMEM (containing 0.5% DMSO, 0.5% FBS) containing compound of the invention with a series of concentrations (0.31160.00 μM) or containing solvent used for comparison. The cells were cultivated at 37° C. for 24 h. The supernatant liquid was collected and the EPO concentration of the supernatant was quantified by using human EPO ELISA kit (Abcam). The activity of each compound in inducing erythropoietin (EPO) production was represented by half maximal effective concentration (EC50).

| EC50 [µM] | Compound |
| --- | --- |
| 4 | Cn1c(=O)c(C(=O)NCC(=O)O)c(O)c2cc(Oc3ccccc3)ccc21 [Example 5, 2-(4-hydroxy-1-methyl-2-oxo-6-phenoxy-1,2-dihydroquinoline-3-carboxamido)acetic acid] |
| 6.83 | Cn1c(=O)c(C(=O)NCC(=O)O)c(O)c2cc(S(=O)(=O)n3ccc4ccccc43)ccc21 [Example 7, 2-(6-((1H-indol-1-yl)sulfonyl)-4-hydroxy-1-methyl-2-oxo-1,2-dihydroquinoline-3-carboxamido)acetic acid] |
| 1.63 | Cn1c(=O)c(C(=O)NCC(=O)O)c(O)c2ccc(Oc3ccc4ccccc4c3)cc21 [Example 8, 2-(4-hydroxy-1-methyl-7-(naphthalen-2-yloxy)-2-oxo-1,2-dihydroquinoline-3-carboxamido)acetic acid] |
| 2.52 | Cn1c(=O)c(C(=O)NCC(=O)O)c(O)c2cc(Oc3ccc4ccccc4c3)ccc21 [Example 9, 2-(4-hydroxy-1-methyl-6-(naphthalen-2-yloxy)-2-oxo-1,2-dihydroquinoline-3-carboxamido)acetic acid] |
| 10.2 | CN(C(=O)c1ccc2c(c1)c(O)c(C(=O)NCC(=O)O)c(=O)n2C)C(c1ccccc1)c1ccccc1 [Example 11, 2-(6-(benzhydryl(methyl)carbamoyl)-4-hydroxy-1-methyl-2-oxo-1,2-dihydroquinoline-3-carboxamido)acetic acid] |
| 4.24 | Cn1c(=O)c(C(=O)NCC(=O)O)c(O)c2ccc(Oc3cccc(Cl)c3)cc21 [Example 12, 2-(7-(3-chlorophenoxy)-4-hydroxy-1-methyl-2-oxo-1,2-dihydroquinoline-3-carboxamido)acetic acid] |
| 10.2 | Cn1c(=O)c(C(=O)NCC(=O)O)c(O)c2ccc(Oc3cccc(F)c3F)cc21 [Example 14, 2-(7-(2,3-difluorophenoxy)-4-hydroxy-1-methyl-2-oxo-1,2-dihydroquinoline-3-carboxamido)acetic acid] |
| 6.92 | Cn1c(=O)c(C(=O)NCC(=O)O)c(O)c2ccc(Oc3ccc(F)cc3F)cc21 [Example 15, 2-(7-(2,4-difluorophenoxy)-4-hydroxy-1-methyl-2-oxo-1,2-dihydroquinoline-3-carboxamido)acetic acid] |
| 8.83 | Cn1c(=O)c(C(=O)NCC(=O)O)c(O)c2ccc(Oc3c(F)cccc3F)cc21 [Example 16, 2-(7-(2,6-difluorophenoxy)-4-hydroxy-1-methyl-2-oxo-1,2-dihydroquinoline-3-carboxamido)acetic acid] |
| 3.16 | Cn1c(=O)c(C(=O)NCC(=O)O)c(O)c2ccc(Oc3ccc(F)c(F)c3)cc21 [Example 17, 2-(7-(3,4-difluorophenoxy)-4-hydroxy-1-methyl-2-oxo-1,2-dihydroquinoline-3-carboxamido)acetic acid] |
| 6.28 | Cn1c(=O)c(C(=O)NCC(=O)O)c(O)c2ccc(Oc3cc(F)cc(F)c3)cc21 [Example 18, 2-(7-(3,5-difluorophenoxy)-4-hydroxy-1-methyl-2-oxo-1,2-dihydroquinoline-3-carboxamido)acetic acid] |
| 3.75 | Cn1c(=O)c(C(=O)NCC(=O)O)c(O)c2ccc(Oc3cccc(Cl)c3F)cc21 [Example 20, 2-(7-(3-chloro-2-fluorophenoxy)-4-hydroxy-1-methyl-2-oxo-1,2-dihydroquinoline-3-carboxamido)acetic acid] |
| 5.75 | Cn1c(=O)c(C(=O)NCC(=O)O)c(O)c2ccc(Oc3ccc(Cl)cc3F)cc21 [Example 21, 2-(7-(4-chloro-2-fluorophenoxy)-4-hydroxy-1-methyl-2-oxo-1,2-dihydroquinoline-3-carboxamido)acetic acid] |
| 9.23 | Cn1c(=O)c(C(=O)NCC(=O)O)c(O)c2ccc(Oc3c(F)cccc3Cl)cc21 [Example 23, 2-(7-(2-chloro-6-fluorophenoxy)-4-hydroxy-1-methyl-2-oxo-1,2-dihydroquinoline-3-carboxamido)acetic acid] |
| 9.53 | Cn1c(=O)c(C(=O)NCC(=O)O)c(O)c2ccc(Oc3cccc(F)c3Cl)cc21 [Example 24, 2-(7-(2-chloro-3-fluorophenoxy)-4-hydroxy-1-methyl-2-oxo-1,2-dihydroquinoline-3-carboxamido)acetic acid] |
| 10.2 | Cn1c(=O)c(C(=O)NCC(=O)O)c(O)c2ccc(Oc3ccc(Cl)c(F)c3)cc21 [Example 25, 2-(7-(4-chloro-3-fluorophenoxy)-4-hydroxy-1-methyl-2-oxo-1,2-dihydroquinoline-3-carboxamido)acetic acid] |
| 13.5 | Cn1c(=O)c(C(=O)NCC(=O)O)c(O)c2ccc(Oc3cc(F)cc(Cl)c3)cc21 [Example 26, 2-(7-(3-chloro-5-fluorophenoxy)-4-hydroxy-1-methyl-2-oxo-1,2-dihydroquinoline-3-carboxamido)acetic acid] |

| EC50 [µM] | Compound |
| --- | --- |
| 6.85 | Cn1c(=O)c(C(=O)NCC(=O)O)c(O)c2ccc(Oc3cc(F)ccc3Cl)cc21 [Example 27, 2-(7-(2-chloro-5-fluorophenoxy)-4-hydroxy-1-methyl-2-oxo-1,2-dihydroquinoline-3-carboxamido)acetic acid] |
| 10.2 | Cn1c(=O)c(C(=O)NCC(=O)O)c(O)c2ccc(Oc3ccc(F)c(Cl)c3)cc21 [Example 29, 2-(7-(3-chloro-4-fluorophenoxy)-4-hydroxy-1-methyl-2-oxo-1,2-dihydroquinoline-3-carboxamido)acetic acid] |
| 1.97 | Cn1c(=O)c(C(=O)NCC(=O)O)c(O)c2ccc(Oc3cccc(Cl)c3Cl)cc21 [Example 30, 2-(7-(2,3-dichlorophenoxy)-4-hydroxy-1-methyl-2-oxo-1,2-dihydroquinoline-3-carboxamido)acetic acid] |
| 4.15 | Cn1c(=O)c(C(=O)NCC(=O)O)c(O)c2ccc(Oc3ccc(Cl)cc3Cl)cc21 [Example 31, 2-(7-(2,4-dichlorophenoxy)-4-hydroxy-1-methyl-2-oxo-1,2-dihydroquinoline-3-carboxamido)acetic acid] |
| 3.63 | Cn1c(=O)c(C(=O)NCC(=O)O)c(O)c2ccc(Oc3c(Cl)cccc3Cl)cc21 [Example 32, 2-(7-(2,6-dichlorophenoxy)-4-hydroxy-1-methyl-2-oxo-1,2-dihydroquinoline-3-carboxamido)acetic acid] |
| 2.56 | Cn1c(=O)c(C(=O)NCC(=O)O)c(O)c2ccc(Oc3ccc(Cl)c(Cl)c3)cc21 [Example 33, 2-(7-(3,4-dichlorophenoxy)-4-hydroxy-1-methyl-2-oxo-1,2-dihydroquinoline-3-carboxamido)acetic acid] |
| 20.2 | Cn1c(=O)c(C(=O)NCC(=O)O)c(O)c2ccc(Oc3cc(Cl)cc(Cl)c3)cc21 [Example 34, 2-(7-(3,5-dichlorophenoxy)-4-hydroxy-1-methyl-2-oxo-1,2-dihydroquinoline-3-carboxamido)acetic acid] |
| 2.25 | Cn1c(=O)c(C(=O)NCC(=O)O)c(O)c2ccc(Oc3cc(Cl)ccc3Cl)cc21 [Example 35, 2-(7-(2,5-dichlorophenoxy)-4-hydroxy-1-methyl-2-oxo-1,2-dihydroquinoline-3-carboxamido)acetic acid] |
| 2.95 | COc1ccc(Oc2ccc3c(O)c(C(=O)NCC(=O)O)c(=O)n(C)c3c2)cc1 [Example 36, 2-(4-hydroxy-7-(4-methoxyphenoxy)-1-methyl-2-oxo-1,2-dihydroquinoline-3-carboxamido)acetic acid] |
| 6.26 | COc1cccc(Oc2ccc3c(O)c(C(=O)NCC(=O)O)c(=O)n(C)c3c2)c1 [Example 37, 2-(4-hydroxy-7-(3-methoxyphenoxy)-1-methyl-2-oxo-1,2-dihydroquinoline-3-carboxamido)acetic acid] |
| 8.85 | COc1ccccc1Oc1ccc2c(O)c(C(=O)NCC(=O)O)c(=O)n(C)c2c1 [Example 38, 2-(4-hydroxy-7-(2-methoxyphenoxy)-1-methyl-2-oxo-1,2-dihydroquinoline-3-carboxamido)acetic acid] |
| 4.89 | Cn1c(=O)c(C(=O)NCC(=O)O)c(O)c2cc(F)c(Oc3ccccc3)cc21 [Example 39, 2-(6-fluoro-4-hydroxy-1-methyl-2-oxo-7-phenoxy-1,2-dihydroquinoline-3-carboxamido)acetic acid] |
| 4.06 | Cn1c(=O)c(C(=O)NCC(=O)O)c(O)c2ccc(Oc3ccccc3OC(F)(F)F)cc21 [Example 40, 2-(4-hydroxy-1-methyl-2-oxo-7-(2-(trifluoromethoxy)phenoxy)-1,2-dihydroquinoline-3-carboxamido)acetic acid] |
| 28.9 | Cn1c(=O)c(C(=O)NCC(=O)O)c(O)c2ccc(Oc3ccncc3)cc21 [Example 43, 2-(4-hydroxy-1-methyl-2-oxo-7-(pyridin-4-yloxy)-1,2-dihydroquinoline-3-carboxamido)acetic acid] |
| 6.02 | Cn1c(=O)c(C(=O)NCC(=O)O)c(O)c2ccc(Oc3ccccc3F)cc21 [Example 45, 2-(7-(2-fluorophenoxy)-4-hydroxy-1-methyl-2-oxo-1,2-dihydroquinoline-3-carboxamido)acetic acid] |
| 3.61 | Cn1c(=O)c(C(=O)NCC(=O)O)c(O)c2ccc(Oc3cccc(F)c3)cc21 [Example 46, 2-(7-(3-fluorophenoxy)-4-hydroxy-1-methyl-2-oxo-1,2-dihydroquinoline-3-carboxamido)acetic acid] |

| Compound | EC50 [µM] |
| --- | --- |
| O=C(O)CNC(=O)c1c(O)c2ccc(Oc3ccccc3)cc2n(CCC2CC2)c1=O [Example 42, 2-(1-(cyclopropylethyl)-4-hydroxy-2-oxo-7-phenoxy-1,2-dihydroquinoline-3-carboxamido)acetic acid] | 3.34 |
